Assay results from patent US7700584B2 (Hangzhou Minsheng Pharmaceuticals Co., Ltd., priority 2004, dated 2010).

How the values were obtained:
[1] = tested on: SMMC-7721 human hepatic carcinoma; assay: In vitro inhibition rate to tumor cells (MTT), SMMC-7721; type: cell-based; conditions: 50 μg/ml
Method: (§1) (1) Single cell suspension was seeded into 96-well plates (×3) (the cells was diluted in the PRMI-1640 minimum medium to 3×10^4 cells/ml, […] diluted cells/well). […] The experiments were performed in quadruplicate.
(§2) (2) The medium was removed. Solutions of the anti-tumor agents (15 compounds) were prepared in a freshly prepared medium at the concentrations indicated in the following Table. […] of the solution was added into each well. Incubation was continued for 48 hours.
(§3) (3) […] of 2 mg/ml MTT was added into each well, and incubated for 4 hours.
(§4) (4) The medium was removed from the well. The microplates were swiftly turned down to throw-off the medium. […] DMSO was added into each well, and vortexed at room temperature for 10 minutes.
(§5) (5) OD value (λ=570 nm) was measured with an Enzyme-Linked Detector.
(§6) (6) The inhibition rates (IR) of cell growth were respectively calculated based on the following equation: IR(%)=[1−(average OD of the experimental group/average OD of the control group)]×100%

293 cells = assay: Cell status of 293 cells treated with sample alone (herpes virus screening)
[2] = tested on: Bel-7402 human hepatic carcinoma; assay: In vitro inhibition rate to tumor cells (MTT), Bel-7402; type: cell-based; conditions: 50 μg/ml
Method: as §1, §2, §3, §4, §5, §6

[3] = tested on: A-549 human lung adenocarcinoma; assay: In vitro inhibition rate to tumor cells (MTT), A-549; type: cell-based; conditions: 50 μg/ml
Method: as §1, §2, §3, §4, §5, §6

[4] = tested on: Hela human cervical carcinoma; assay: In vitro inhibition rate to tumor cells (MTT), Hela; type: cell-based; conditions: 50 μg/ml
Method: as §1, §2, §3, §4, §5, §6

[5] = tested on: U-937 human histocytic lymphoma; assay: In vitro inhibition rate to tumor cells (MTT), U-937; type: cell-based; conditions: 50 μg/ml
Method: as §1, §2, §3, §4, §5, §6

[6] = tested on: HL-60 human promyelocytic leukemia; assay: In vitro inhibition rate to tumor cells (MTT), HL-60; type: cell-based; conditions: 50 μg/ml
Method: as §1, §2, §3, §4, §5, §6

[7] = tested on: MCF-7 human mammary adenocarcinoma; assay: In vitro inhibition rate to tumor cells (MTT), MCF-7; type: cell-based; conditions: 50 μg/ml
Method: as §1, §2, §3, §4, §5, §6

[8] = tested on: LLC mouse Lewis lung carcinoma; assay: In vitro inhibition rate to tumor cells (MTT), LLC; type: cell-based; conditions: 50 μg/ml
Method: as §1, §2, §3, §4, §5, §6

SMILES | inhibition rate, Results (%) SMMC-7721 ([1]; Table 1) | inhibition rate, Results (%) SMMC-7721 ([1]; Table 2 (repeated screening)) | Cytopathy and cell status, Sample (293 cells; 200 μg/ml, 24 hrs) | inhibition rate, Results (%) Bel-7402 ([2]; Table 1) | inhibition rate, Results (%) Bel-7402 ([2]; Table 2 (repeated screening)) | inhibition rate, Results (%) A-549 ([3]; Table 1) | inhibition rate, Results (%) A-549 ([3]; Table 2 (repeated screening)) | inhibition rate, Results (%) Hela ([4]; Table 1) | inhibition rate, Results (%) Hela ([4]; Table 2 (repeated screening)) | inhibition rate, Results (%) U-937 ([5]; Table 1) | inhibition rate, Results (%) U-937 ([5]; Table 2 (repeated screening)) | inhibition rate, Results (%) HL-60 ([6]; Table 1) | inhibition rate, Results (%) HL-60 ([6]; Table 2 (repeated screening)) | inhibition rate, Results (%) MCF-7 ([7]; Table 1) | inhibition rate, Results (%) MCF-7 ([7]; Table 2 (repeated screening)) | inhibition rate, Results (%) LLC ([8]; Table 1) | inhibition rate, Results (%) LLC ([8]; Table 2 (repeated screening)) | Cytopathy and cell status, Sample (293 cells; 50 μg/ml, 293 cells without virus, 12 hrs)
CC(C)C1CC23OC1(O)CC(=CO[N+](=O)[O-])C2CCC3C (stereo not shown) [Compound 19, Curcumol mononitrate] | 23.01% | 12.301% | Apoptotic | 4.32% | 8.95% | 2.51% | 3.10% | 55.67% | 50.27% | 50.97% | 42.23% | 54.03% | 55.98% | 12.6% | 0.16% | −15.52% | −16.00% | 
CC(C)C1CC23OC1(O)CC(C)(N1CCNCC1)C2CCC3C (stereo not shown) [Compound 43, Curcumol piperazine without double bond] | −10.12% | −8.98% |  | 9.15% | −4.98% | 13.39% | 11.24% | 62.13% | 59.66% | 16.32% | 12.30% | 2.56% | 2.00% | 43.21% | 41.94% | −2.06% | −11.23% | Good
